The results in this text go back to PubChem BioAssay (NCI).

The structures appear in SMILES notation.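 How tested: cells in 96-well plates exposed to compound for 48 hours at five concentrations. GI50 is the concentration that inhibits growth by half.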

The test system of the assay is P388/ADR leukemia. Kind of assay: NCI tumour cell line growth inhibition, 48 h.

With `CC(C)CCCCCCCCCCCCC(=O)NCC(=O)NC1C(O)C(O)C(Nc2ncnc3nc[nH]c23)OC1C(O)CO` (stereo unspecified), the GI50 was 5 nM.
